Assay results taken from patent US4619929A, “Phenylpiperazine derivatives of hetarylphenols and hetarylanilines, their preparation, and therapeutic agents containing these compounds” (BASF Aktiengesellschaft, priority 1981, dated 1986).
Where two headings read alike, the source gives them in different places.

Experiments:
[1] = Hypotensive action on rats under urethane narcosis, blood pressure measured in the carotid artery (ED 20%); format: in vivo, Sprague-Dawley rats; conditions: for Hypotensive effect R.A. (relative activity; chlorpromazine = 1.00) / ED20: rat; for Separation between sedative action and hypotensive action versus chlorpromazine: in words; for Hypotensive action in words: blood pressure lowering doses versus chlorpromazine: narcotized rats; for Hypotensive side effect, in words: versus chlorpromazine
Method: The blood pressure was measured in the carotid artery. The substance was administered either by introduction into a jugular vein (as an aqueous solution, at the rate of 1 ml/kg) or intraperitoneally as a suspension in tragacanth (at the rate of 10 ml/kg). The ED 20%, i.e. the dose which produces a 20% lowering of the blood pressure, was determined from the linear regression of log dose (mg/kg) and relative lowering of the blood pressure (Δ %).

[2] = Sedative action: orientation hypermotility of mice induced by a new environment (ED 50%); format: in vivo, female NMRI mice; conditions: for Sedative effect R.A. (relative activity; chlorpromazine = 1.00) / ED50: mouse, oral administration; for Inhibition of the orientation hypermotility of mice (sedative-neuroleptic action), in words / Sedative action compared with chlorpromazine, in words: mice
Method: The substance was administered orally to 4-8 groups each comprising 3 female NMRI mice. The orientation hypermotility induced by a new environment was determined photoelectrically, 30 minutes after administration of the substance, over a period of 30 minutes. The ED 50%, i.e. the dose which produces 50% reduction in orientation hypermotility compared to placebo-treated control […], is determined.

[3] = Table 1, quotient defined by formula drawing 8 (sedative ED 50% mouse oral, hypotensive ED 20% rat i.v.)
[4] = Table 1, intravenous administration
[5] = Table 1, intravenous administration, read-out: Hypotensive effect ED 20% (dose which reduces the blood pressure by 20%)
[6] = Table 1, read-out: Sedative effect ED 50% (dose which reduces the motility by 50%)
[7] = Table 2, defined by formula drawing 9, hypotensive effect i.v.
[8] = Table 2, intravenous (i.v.), read-out: Hypotensive effect ED 20%
[9] = Table 2, read-out: Sedative effect ED 50%
[10] = Table 2, defined by formula drawing 9, hypotensive effect i.p.
[11] = Table 2, intraperitoneal (i.p.)
[12] = ip, Table 2, intraperitoneal (i.p.), read-out: Hypotensive effect ED 20%

SMILES | Q [1, 3] | Hypotensive effect R.A. (relative activity; chlorpromazine = 1.00) [1, 4] | ED20 [1, 5] [mg/kg] | Separation between sedative action and hypotensive action versus chlorpromazine [1] | Hypotensive action in words: blood pressure lowering doses versus chlorpromazine [1] | Sedative effect R.A. (relative activity; chlorpromazine = 1.00) ([2]; Table 1) | ED50 [2, 6] [mg/kg] | Q [1, 7] | Hypotensive effect R.A. (relative activity; chlorpromazine = 1.00) ([1]; Table 2, intravenous (i.v.)) | ED20 [1, 8] [mg/kg] | Hypotensive side effect, in words [1] | Sedative effect R.A. (relative activity; chlorpromazine = 1.00) ([2]; Table 2) | ED50 [2, 9] [mg/kg] | Inhibition of the orientation hypermotility of mice (sedative-neuroleptic action), in words [2] | Sedative action compared with chlorpromazine, in words [2] | Q [1, 10] | Hypotensive effect R.A. (relative activity; chlorpromazine = 1.00) [1, 11] | ED20 [1, 12] [mg/kg]
COc1ccccc1N1CCN(CCCOc2ccccc2-c2nnco2)CC1 [Example 1] | 2,050 | 3.25 | 0.008 | substantially greater | significantly lower than in the case of chlorpromazine | 0.13 | 16.4 |  |  |  |  |  |  |  |  |  |  | 
COc1ccccc1N1CCN(CCCOc2ccccc2-c2nnc(C)o2)CC1 [Example 3, 1-[2-(5-Methyl-1,3,4-oxadiazol-2-yl)-phenoxy]-3-[4-(2-methoxyphenyl)-piperazin-1-yl]-propane] | 534 | 0.68 | 0.0384 | substantially greater |  | 0.10 | 20.5 |  |  |  |  |  |  |  |  |  |  | 
COc1ccccc1N1CCN(CCCOc2cccc(-c3nnco3)c2)CC1 [Example 6, 1-[3-(1,3,4-Oxadiazol-2-yl)-phenoxy]-3-[4-(2-methoxyphenyl)-piperazin-1-yl]-propane] | 417 | 3.38 | 0.0077 | substantially greater | significantly lower than in the case of chlorpromazine | 0.66 | 3.21 |  |  |  |  |  |  |  |  |  |  | 
COc1ccccc1N1CCN(CCCOc2cccc(-c3nnc(C)o3)c2)CC1 [Example 7, 1-[3-(5-Methyl-1,3,4-oxadiazol-2-yl)-phenoxy]-3-[4-(2-methoxyphenyl)-piperazin-1-yl]-propane] | 312 | 2.17 | 0.0012 | substantially greater | significantly lower than in the case of chlorpromazine | 0.56 | 3.74 |  |  |  |  |  |  |  |  |  |  | 
Fc1ccc(N2CCN(CCCOc3ccc(-n4ccnc4)cc3)CC2)cc1 [Example 10] |  |  |  |  |  |  |  | 3.0 | 0.03 | 1 | non-hypotensive action up to doses of 1 or 10 mg/kg | 0.69 | 3.05 | powerful inhibition of the orientation hypermotility of mice | almost achieved |  |  | 
COc1ccccc1N1CCN(CCCOc2ccc(-c3nnco3)cc2)CC1 [Example 11, 1-[4-(1,3,4-Oxadiazol-2-yl)-phenoxy]-3-[4-(2-methoxyphenyl)-piperazin-1-yl]-propane] | 307 | 3.71 | 0.007 | substantially greater | significantly lower than in the case of chlorpromazine | 0.98 | 2.15 |  |  |  |  |  |  |  |  |  |  | 
Fc1ccc(N2CCN(CCCNc3ccc(-n4cncn4)cc3)CC2)cc1 [Example 14, 1-[4-(1,2,4-Triazol-1-yl)-phenylamino]-3-[4-(4-fluorophenyl)-piperazin-1-yl]-propane] |  |  |  |  |  |  |  |  |  |  | non-hypotensive action up to doses of 1 or 10 mg/kg | 2.59 | 0.818 | powerful inhibition of the orientation hypermotility of mice | clearly surpassed | 0.08 | 0.02 | 10
Fc1ccc(N2CCN(CCCNc3ccc(-n4ccnc4)cc3)CC2)cc1 [Example 15, 1-[4-(Imidazol-1-yl)-phenylamino]-3-[4-(4-fluorophenyl)-piperazin-1-yl]-propane] |  |  |  |  |  |  |  | 0.16 | 0.003 | 10 | non-hypotensive action up to doses of 1 or 10 mg/kg | 1.3 | 1.62 | powerful inhibition of the orientation hypermotility of mice | clearly surpassed |  |  | 
CN(C)CCCN1c2ccccc2Sc2ccc(Cl)cc21 [chlorpromazine, reference compound] | 81 | 1.00 | 0.026 |  |  | 1.00 |  | 81.0 | 1.0 | 0.026 | observed even at low doses | 1.0 | 2.11 |  |  | 12.9 | 1.0 | 0.164
